Patent publication US20260083704A1, “LXR MODULATORS WITH BICYCLIC CORE MOIETY FOR TREATING DYSLIPIDEMIAS” (OrsoBio, Inc., priority 2022, published 2026)
Marks after values point to notes of the source that are not given here.

Test system: healthy subjects
Experiment: Phase 1 study, MAD cohorts: safety and tolerability
Assay type: in vivo, human
Conditions: for Abdominal pain / Any TEAE / Back pain / Diarrhea / Grade ≥2 TEAE / Headache / Pruritis / Serious TEAE / TEAE leading to study drug discontuation / Treatment-related TEAE / subjects with mild (Grade 1), transient increase in serum ALT: MAD; for Abdominal pain / Any TEAE / Back pain / Diarrhea / Grade ≥2 TEAE / Headache / Pruritis / Serious TEAE / TEAE leading to study drug discontuation / Treatment-related TEAE: n = 8
Method: A double-blind, placebo-controlled, single- and multiple-ascending dose FIH Phase 1 study to evaluate the safety, tolerability, PK, and PD of Compound 21/3 in healthy adult subjects was performed. A total of up to 150 subjects were enrolled, including 100 subjects in Parts A and B, and up to 50 subjects in adaptive cohorts in Part C. Within each cohort, 10 subjects were randomized, including 8 subjects randomized to Compound 21/3 and 2 subjects to PTM (placebo-to-match). In single-dose cohorts in Parts A and in any Part C cohort evaluating a higher total daily dose than previously evaluated, safety and tolerability data collected through Day 2 from two sentinel subjects, one randomized to Compound 21/3 and one to PTM, were evaluated prior to dosing of the remaining subjects in each cohort.
An approximately even distribution of healthy male and non-pregnant, non-lactating female subjects 18 to 55 years of age, inclusive, were to be enrolled in the study. There were no significant medical conditions by history, physical examination, or laboratory evaluation. Subjects were not allowed to participate in more than one cohort of the study. Within each MAD cohort, attempts were made to enrich for >3 subjects with elevated TG and/or LDL-C. Following the completion of Screening and admission assessments, eligible subjects were to be enrolled on Day −1. Safety and tolerability assessments, including adverse event (AE) monitoring, laboratory tests, physical examinations, and ECG evaluations were performed throughout the study.
The severity of AEs was graded using the Common Terminology Criteria for Adverse Events version 5.0 (CTCAE v5.0).

N#Cc1cccc(C#N)c1-c1c(-c2cccc(-c3ccc(C(=O)NCC(=O)O)cc3Cl)c2)n(S(=O)(=O)c2ccc(C(F)F)cc2)c2ccc(F)cc12 [Compound 21/3]
Abdominal pain (0.5 mg, fed): 1 (13)
Any TEAE (0.5 mg, fed): 7 (88)
Back pain (0.5 mg, fed): 0 (0)
Diarrhea (0.5 mg, fed): 2 (25)
Grade ≥2 TEAE (0.5 mg, fed): 0 (0)
Headache (0.5 mg, fed): 1 (13)
Pruritis (0.5 mg, fed): 4 (50)
Serious TEAE (0.5 mg, fed): 0 (0)
TEAE leading to study drug discontuation (0.5 mg, fed): 0 (0)
Treatment-related TEAE (0.5 mg, fed): 0 (0)
Abdominal pain (2 mg, fed): 0 (0)
Any TEAE (2 mg, fed): 3 (38)
Back pain (2 mg, fed): 0 (0)
Diarrhea (2 mg, fed): 0 (0)
Headache (2 mg, fed): 0 (0)
Pruritis (2 mg, fed): 0 (0)
Serious TEAE (2 mg, fed): 0 (0)
TEAE leading to study drug discontuation (2 mg, fed): 0 (0)
Treatment-related TEAE (2 mg, fed): 0 (0)
Grade ≥2 TEAE (2 mg, fed, Grade 2 thrombophlebitis considered unrelated to study treatment): 1 (13)*
Abdominal pain (6 mg (fasted)): 1 (13)
Any TEAE (6 mg (fasted)): 1 (13)
Back pain (6 mg (fasted)): 0 (0)
Diarrhea (6 mg (fasted)): 0 (0)
Grade ≥2 TEAE (6 mg (fasted)): 0 (0)
Headache (6 mg (fasted)): 0 (0)
Pruritis (6 mg (fasted)): 0 (0)
Serious TEAE (6 mg (fasted)): 0 (0)
TEAE leading to study drug discontuation (6 mg (fasted)): 0 (0)
Treatment-related TEAE (6 mg (fasted)): 0 (0)
Abdominal pain (6 mg, fed): 1 (13)
Any TEAE (6 mg, fed): 5 (63)
Back pain (6 mg, fed): 2 (25)
Diarrhea (6 mg, fed): 1 (13)
Grade ≥2 TEAE (6 mg, fed): 0 (0)
Headache (6 mg, fed): 1 (13)
Pruritis (6 mg, fed): 0 (0)
Serious TEAE (6 mg, fed): 0 (0)
TEAE leading to study drug discontuation (6 mg, fed): 0 (0)
Treatment-related TEAE (6 mg, fed): 1 (13)
Abdominal pain (12 mg, fed): 1 (13)
Any TEAE (12 mg, fed): 3 (38)
Back pain (12 mg, fed): 0 (0)
Diarrhea (12 mg, fed): 2 (25)
Grade ≥2 TEAE (12 mg, fed): 0 (0)
Headache (12 mg, fed): 2 (25)
Pruritis (12 mg, fed): 0 (0)
Serious TEAE (12 mg, fed): 0 (0)
TEAE leading to study drug discontuation (12 mg, fed): 0 (0)
Treatment-related TEAE (12 mg, fed): 2 (25)
tolerability (healthy subjects, 0.5, 2, 6, and 12 mg for 14 days): well tolerated
subjects with treatment-related TEAEs (all mild, gastrointestinal) (healthy subjects, MAD cohorts): 3 subjects
proportion of subjects with adverse events (AEs) (healthy subjects, MAD cohorts, range over dose groups): 13-88%
subjects with mild (Grade 1), transient increase in serum ALT (healthy subjects, 6 mg group, fed): one
subjects with mild (Grade 1), transient increase in serum ALT (healthy subjects, 12 mg group, fed): 4 subjects
safety and tolerability (healthy subjects, single and multiple daily doses up to 20 mg/d for 14 days): safe and well tolerated
